We go through 88 compounds from a melting point compilation (Tetko et al.; mined from patent text by program, amines drawn as free bases though some values may be those of a salt).

The term melting point denotes the temperature, or range, at which the solid turns liquid.

Compound `Cc1cc(O)c(SCc2ccc(Cl)cc2Cl)c(=O)o1` registered a melting point of 163 to 164 °C.

On to `CCCCOc1ccc(C(=O)Nc2ccc3cc(CN4CCN(C)CC4)cnc3c2C)c(F)c1`, for which the melting point came to 155 °C. Then `COC(=O)CCc1nsc2ccc(-n3c(=O)cc(C(F)(F)F)n(C)c3=O)cc12`, with 176 to 178 °C; and `Cc1cccc(CON2C(C)(C)CC(O)CC2(C)C)c1`, with 66 to 67 °C.

For the compound `O=C(O)C1(CCc2ccc(Cl)cc2)CCN(CC2CC2)CC1`, the melting point turned out to be 250 °C. Take `COC(=O)CCCc1cc2nc(Cl)ccc2n1S(=O)(=O)c1cccc2nc(C)sc12`: the melting point was found to be 138 °C. Under `CC(=O)c1cccc(NC(=O)c2cc(C(=O)Nc3cccc(C(C)=O)c3)cc(C(=O)Nc3cccc(C(C)=O)c3)c2)c1` stands 270 °C; under `CC(=O)NC1Cc2ccc(NC(=O)c3ccccc3-c3ccc(F)cc3)cc2C1` (stereo not drawn), 218 to 220 °C; under `CC(C)c1ccc(N(Cc2cnn(CCO)c2)C(=O)C2CCCc3c(O)cccc32)cc1` (stereo not drawn), 110 to 114 °C. Under `O=C1N(Cc2ccc(C(F)(F)F)o2)c2ccccc2C12COc1cc3c(cc12)CCO3` (stereo not drawn) stands 64 to 65 °C.

`CCOc1ccccc1-c1cc(NC(=O)C2CCN(C(C)C)CC2)ncn1` registered a melting point of 173 to 175 °C.

As for `CCOC(=O)C1=C(C)NC(C)=C(C(=O)OCC)C1c1ccccc1C=CC(=O)OC`, the melting point lay within 138 to 140 °C. Take `CC(=O)Nc1c(C#N)oc2ccccc12`: the melting point fell in the range of 164 to 167 °C. Under `CC(C)c1n[nH]c2c(NCc3ccccc3O)ncnc12` stands 214 to 217 °C.

Turning to `CC(C)OC(=O)N1CCC(NC(=O)N2CCn3c(c(C(N)=O)c(Cl)c3-c3ccccc3)C2)CC1`, the melting point is 166 to 167 °C. `COc1ccc(CC(=O)NC(=NOCC2CC2)c2c(F)cccc2C(F)(F)F)cc1` had a melting point of 75 to 76 °C. Compound `CN1C(=O)C2=C(c3ccc(Br)cc3)OC(=O)C2=C1c1ccccc1` returned a melting point of 215 to 216 °C. Then `CCCCCCCCCCCCCCCCCCOc1cc(SC)cc(C(=O)O)c1`, with 64 to 66 °C; and `CCCc1nc2c(NOC)nc(C(c3ccccc3)(c3ccccc3)c3ccccc3)nc2n1CO`, with 188 °C. `CC(C)n1nc(O)nc1Cl` gave a melting point of 100 to 104 °C. For the compound `NC(=O)N(O)[C@H]1CC[C@H](c2cccc(F)c2)C1` (relative stereo), the melting point is 113 to 114 °C.

`CC(=O)Oc1cc(C(=O)Cc2ccccc2)cc([N+](=O)[O-])c1OC(C)=O`: the melting point was in the range of 94 to 95 °C. Compound `Cc1cc2cc(CN3CCCCC3)cnc2cc1NC(=O)c1ccc(-c2ccc(F)cc2)cc1` gave a melting point of 185 to 188 °C.

Compound `CNC(=O)N(C)c1cc(C(C)(C)C)on1` registered a melting point of 150 to 151 °C. Turning to `CCOC(=O)N1CCN(c2nc(NC3CC3)ccc2[N+](=O)[O-])CC1`, the melting point lay in the range of 100 to 103 °C. In turn, `CCC(=O)N1CCCSC1=C[N+](=O)[O-]` came in with a melting point of 84 to 86 °C. For the compound `Cc1nnc2c(C(C)Oc3ccc(Cl)cc3)ccnn12` (stereo not drawn), the melting point lay in the range of 158 to 160 °C. Under `O=C1NC(=O)c2c1c(-c1ccccc1Cl)cc1c2c(Br)c(CO)n1CCCO` stands 203 to 205 °C; under `CCN1CC(C(=O)Nc2cnccn2)CC2c3cccc4[nH]cc(c34)CC21` (stereo not drawn), 151 to 155 °C; under `CNC(=O)C(O)C1=CC2(CCCC2)c2ccccc21` (stereo not drawn), 136 to 138 °C. As for `COC(=O)c1c(C(=O)OC)c(C(C)C)n(CCC2CC(O)CC(=O)O2)c1-c1ccc(F)cc1` (stereo not drawn), the melting point lay within 167 to 170 °C. Turning to `COc1ccccc1C(C)NCC(=O)Nc1c(C(C)C)cccc1C(C)C` (stereo not drawn), the melting point fell in the range of 68 to 70 °C. Under `COc1ccc(-c2ocnc2-c2cc(OC)c(Br)c(OC)c2)cc1N` stands 180 to 184 °C; under `COc1cc(C)ccc1S(=O)(=O)NC(=O)C(c1cc(OC)c2c(c1)OCO2)c1cn(C)c2cc(C=O)ccc12` (stereo not drawn), 233 °C. Then `CCC(=O)NCC[C@@H]1CCc2ccc(O)c(CCO)c21`, with 144 to 146 °C; and `CC(c1ccc(N2CCCC2)cc1)c1ccc(N2CCCC2)cc1`, with 112 °C; and `CCOc1cc(OC)c(/C=C/C(=O)c2ccc(C(=O)O)cc2)cc1-c1cccs1`, with 210 to 212 °C.

As for `O=[N+]([O-])c1ccc(SNCCO)c(C(Cl)(Cl)Cl)c1`, the melting point was found to be 85 °C. Then `CC(C)(C)NCC(O)c1cccc(C#N)c1F` (stereo not drawn), with 88 to 90 °C; and `CCc1c(-c2ccc(OC)cc2)c2cc(C(C)=O)c3cccc1n32`, with 73 to 75 °C; and `CCCCCS(=O)(=O)NC(=O)/C=C/c1ccc(OCCOC)cc1OCc1ccc(Cl)cc1Cl`, with 138 °C. Under `CC(=O)OC1CSC(Oc2cncc(-c3ccc(F)cc3Cl)c2)C(OC(C)=O)C1OC(C)=O` (stereo not drawn) stands 115 °C; under `BrCc1cc2ccccc2s1`, 107 to 109 °C; under `COc1cc(NC(=O)CC23CC4CC(CC(C4)C2)C3)c(C)c(OC)c1`, 201 to 203 °C.

`CC(=O)Oc1ccc(CC2SC(=O)N(C(c3ccccc3)(c3ccccc3)c3ccccc3)C2=O)cc1` (stereo not drawn) registered a melting point of 152 to 156 °C. Under `COc1csc2ccc(C(=O)O)c(Cl)c12` stands 185 to 192 °C; under `Cc1ccn(-c2nccc3[nH]c(=O)ccc23)n1`, more than 300 °C.

On to `Nc1nc(Cl)cc(OCC(O)CO)n1` (stereo not drawn), for which the melting point lay in the range of 175 to 177 °C. Under `Cn1c(C(O)CO)cnc1[N+](=O)[O-]` (stereo not drawn) stands 119 to 121 °C; under `CC1(C)COC(=O)N1c1nc(-c2ccc([N+](=O)[O-])cc2)cs1`, 176 to 179 °C; under `CC(=O)c1cccc(NC(=O)NCCN(CCNC(=O)Nc2cccc(C(C)=O)c2)CCNC(=O)Nc2cccc(C(C)=O)c2)c1`, 193 °C. Then `Cc1ccc(C(c2ccc(C)cc2)C2CN(Cc3ccc(O)cc3)CCC2=O)cc1` (stereo not drawn), with 156 to 157 °C. Under `O=C(O)C=Cc1ccc(-c2ccc(-c3cccs3)s2)s1` stands 220 to 225 °C; under `O=c1[nH]ccc2c1C(c1cccc(Cl)c1)N=C(c1ccccc1)N2` (stereo not drawn), 172 to 173 °C. `Cc1cccc(C(=O)Nc2c[nH]nc2C(=O)NCCCO)n1` showed a melting point of 196 to 197 °C. Regarding `COc1ncc(C2OC(CO)C(O)C2O)c(OC)n1` (stereo not drawn), the melting point was 138 to 139 °C. Then `COc1cc(COc2nn(-c3ccccc3)cc2CCc2cscn2)ccc1OCc1nc(-c2ccco2)oc1C`, with 127 to 128 °C; and `c1ccc(-c2cn3ccsc3n2)cc1`, with 143 to 144 °C; and `COc1cccc2c1C(=O)c1sc(-c3ccccc3)nc1C2=O`, with more than 260 °C.

`COc1ccc(CC(=O)N2CCN(C(=S)SC)CC2)c(OC)c1OC` returned a melting point of 119 to 120 °C. `CCOC(=O)C1=C(C)Nc2nc(N3CCOCC3)nc(N3CCOCC3)c2C1c1cccc2nonc12` (stereo not drawn): the melting point was found to be 234 °C. Then `CCCc1nc(CO)c(C(=O)OCC)n1Cc1ccc(-c2ccccc2-c2nnnn2C(c2ccccc2)(c2ccccc2)c2ccccc2)cc1`, with 135 to 138 °C; and `O=c1[nH]c(=Cc2ccc(OCc3ccncc3)cn2)c(=O)[nH]c1=Cc1ccccc1`, with 254 to 255 °C. Then `Cc1nc(-c2[nH]c3ccccc3c2C=O)no1`, with 228 to 230 °C; and `Nc1ccc(N2CCN(Cc3ncc(-c4ccccc4)o3)CC2)cc1`, with 130 °C. Then `CCN(CC)C(=O)c1c(C(=O)c2cc3cnccc3n2S(=O)(=O)c2ccccc2)ccnc1OC`, with 150 °C; and `Brc1ccc(OCc2ccc3ccccc3c2)nc1`, with 83 to 85 °C.

In the case of `Clc1ccc(-c2ccc(N3CCCN(c4ccc(-c5ccc(Cl)cc5)cn4)CC3)nc2)cc1`, the melting point lay within 245 to 247 °C. Regarding `CN(C)c1ccc(-c2cc(=S)ss2)nn1`, the melting point worked out at 265 °C. Then `CCC(C)(C)c1ccc(OCC(=O)Nc2ccc(Nc3cccc(O)c3)cc2)c(C(C)(C)CC)c1`, with 150 to 152 °C. On to `CNC(=O)C(Cc1ccc(OC)cc1)NC(=O)CC(S)C(CC(C)C)C(N)=O` (stereo not drawn), for which the melting point was in the range of 221 to 225 °C. Under `CC(C)(Cc1ccc(O)c2ncccc12)[N+](=O)[O-]` stands 133 to 134 °C. On to `CN1CC=C(c2c[nH]c3ccc(NC(=O)c4ccc(Cl)cc4)cc23)CC1`, for which the melting point is 224 to 226 °C.

Compound `COc1ccc2c(=O)[nH]ncc2c1` returned a melting point of 200 to 205 °C. Then `CCC(=O)Nc1c(-c2c(F)cc(F)cc2F)c(Cl)nc2ncnn12`, with 162 to 165 °C; and `CCCCNc1ccc(-c2cc3ccccc3o2)cc1`, with 113 to 115 °C. Consider `Clc1ccc(-c2noc(CCC#Cc3ccccn3)n2)cc1`, for which the melting point was in the range of 75 to 77 °C. As to `CS(=O)(=O)c1cccc(Nc2cc(-c3ccccc3OCc3ccccc3)ncn2)c1`, the melting point lay in the range of 199 to 205 °C. Under `Cc1ccc2cccc(OCc3c(Cl)ccc([N+](=O)[O-])c3C#N)c2n1` stands 212 to 215 °C; under `COC1=Nc2ccc(Cl)cc2N(c2ccccc2)C(=O)C1`, 136 to 138 °C. Under `CO/C=C(/C(=O)OC)c1ccccc1Oc1cccc(O)c1` stands 117 to 118 °C; under `COc1c(Br)c(O)c(C=O)c(OC)c1Br`, 103 to 104 °C; under `CC(C(=O)O)c1ccc2c(c1)C(=O)Cc1cccnc1S2` (stereo not drawn), 141 to 143 °C. Then `CC(C)(C)c1ccc(N)c([N+](=O)[O-])c1`, with 107 to 108 °C. With `Cc1cccc(NC(=O)c2cc(Cl)cc(C)n2)c1`, the melting point was found to be 95 °C. As to `CN1CCC(c2ccccc2)(N2CCCC2)C(O)C1` (stereo not drawn), the melting point lay in the range of 149 to 151 °C. Then `CN(C)C1(c2ccccc2)CCC(c2cc3ccccc3n2S(=O)(=O)c2ccccc2)CC1` (stereo not drawn), with 139 to 142 °C; and `C[C@H](C1CCCCC1)N1C(=O)c2c(F)c(F)c(F)c(F)c2C1=O`, with 147 to 148 °C.
